Among the data in patent publication US20240174662A1, “SMALL MOLECULE INHIBITORS OF SALT INDUCIBLE KINASES” (Janssen Biotech, Inc., priority 2021, published 2024) are IC50 values, retold here.

The target of this assay is SIK2 (Homo sapiens (Human), UniProt Q9H0K1). Kind of assay: SIK2 Enzymatic Assay Version 2 (High ATP). Format: biochemical. The settings on record: 3 mM ATP and 200 μM HDAC5tide final, ADP-Glo Max luminescence. A digest of the protocol:
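Run at room temperature; SIK2 enzyme at 6 nM (2× final) preincubated with compound 30 min before reaction. ADP formation detected by ADP-Glo Max (2 h reagent, 1 h detection) with luminescence read-out.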
On the technique in general: ADP-Glo turns the ADP formed in a reaction into a luminescent signal.

The structures appear in SMILES notation.

Chain of SIK2 (Q9H0K1 whole entry, species assumed): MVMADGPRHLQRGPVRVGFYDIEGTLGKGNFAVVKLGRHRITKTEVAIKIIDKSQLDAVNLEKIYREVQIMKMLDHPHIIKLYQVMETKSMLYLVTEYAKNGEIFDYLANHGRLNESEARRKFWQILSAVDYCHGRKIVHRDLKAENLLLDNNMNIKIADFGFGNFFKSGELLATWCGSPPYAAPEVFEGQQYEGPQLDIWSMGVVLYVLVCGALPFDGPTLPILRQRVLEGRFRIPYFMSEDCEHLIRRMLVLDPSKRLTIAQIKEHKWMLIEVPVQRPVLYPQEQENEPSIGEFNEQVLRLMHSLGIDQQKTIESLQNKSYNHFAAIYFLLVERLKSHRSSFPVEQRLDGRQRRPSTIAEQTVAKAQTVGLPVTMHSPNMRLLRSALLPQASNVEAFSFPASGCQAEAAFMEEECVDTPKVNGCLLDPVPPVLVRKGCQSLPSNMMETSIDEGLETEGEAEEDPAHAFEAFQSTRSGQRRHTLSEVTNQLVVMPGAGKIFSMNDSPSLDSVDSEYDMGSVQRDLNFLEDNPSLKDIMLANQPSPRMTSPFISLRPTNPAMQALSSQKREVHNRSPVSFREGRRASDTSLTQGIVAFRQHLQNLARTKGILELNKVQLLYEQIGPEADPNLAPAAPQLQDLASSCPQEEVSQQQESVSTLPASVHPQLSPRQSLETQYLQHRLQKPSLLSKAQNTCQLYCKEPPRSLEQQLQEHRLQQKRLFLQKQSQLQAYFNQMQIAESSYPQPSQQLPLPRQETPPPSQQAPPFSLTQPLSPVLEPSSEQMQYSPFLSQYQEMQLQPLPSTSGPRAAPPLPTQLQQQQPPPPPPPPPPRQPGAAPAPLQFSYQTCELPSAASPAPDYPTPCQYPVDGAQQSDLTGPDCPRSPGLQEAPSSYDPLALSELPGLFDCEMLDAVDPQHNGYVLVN

Regarding `CN1CC[C@H](Oc2cnn(C)c2-c2ccn3nc(Nc4ccnc(C5CC5)n4)cc3c2)C1` [Example 281, N-(2-cyclopropylpyrimidin-4-yl)-5-[2-methyl-4-[(3S)-1-methylpyrrolidin-3-yl]oxy-pyrazol-3-yl]pyrazolo[1,5-a]pyridin-2-amine], it took 29.1 nM to reach half-maximal inhibition (IC50). This lies in the double-digit nanomolar range. Then `Cc1cc(Nc2cc3cc(-c4c(O[C@@H]5CNC[C@@H]5F)noc4C)ccn3n2)nnc1C` [Example 93, N-(5,6-dimethylpyridazin-3-yl)-5-[3-[(3R,4S)-4-fluoropyrrolidin-3-yl]oxy-5-methyl-isoxazol-4-yl]pyrazolo[1,5-a]pyridin-2-amine], with 4.7 nM; and `Cn1ncc(OCC2(c3ccccc3)CNC2)c1-c1ccn2nc(NC(=O)C3CC3)cc2c1` [Example 44, N-[5-[2-methyl-4-[(3-phenylazetidin-3-yl)methoxy]pyrazol-3-yl]pyrazolo[1,5-a]pyridin-2-yl]cyclopropanecarboxamide], with 17.6 nM; and `CN1CC[C@@H]1COc1cnn(C)c1-c1ccn2nc(Nc3cnc(C(C)(C)C)cn3)cc2c1` [Example 381, N-(5-tert-butylpyrazin-2-yl)-5-[2-methyl-4-[[(2R)-1-methylazetidin-2-yl]methoxy]pyrazol-3-yl]pyrazolo[1,5-a]pyridin-2-amine], with 3.6 nM.

As to `C[C@H]1CN(C)C[C@H]1OCc1cnn(C)c1-c1ccn2nc(NC(=O)C3CC3)cc2c1` (single isomer, unassigned) [Example 195, (3*S,4*S)—N-[5-[4-[(1,4-dimethylpyrrolidin-3-yl)oxymethyl]-2-methyl-pyrazol-3-yl]pyrazolo[1,5-a]pyridin-2-yl]cyclopropanecarboxamide], the midpoint of inhibition, the IC50, lay at 3.5 nM. As for `CCN1CC2(CC2)[C@H]1COc1cnn(C)c1-c1ccn2nc(NC(=O)C3CC3)cc2c1` (single isomer, unassigned) [Example 67, (*S)—N-[5-[4-[(5-ethyl-5-azaspiro[2.3]hexan-6-yl)methoxy]-2-methyl-pyrazol-3-yl]pyrazolo[1,5-a]pyridin-2-yl]cyclopropanecarboxamide], the IC50 – broadly, the point on the concentration scale where inhibition reaches its midpoint – stood at 52.1 nM. On to `CO[C@@H]1CNC[C@H]1COc1cnn(C)c1-c1ccn2nc(NC(=O)C3CC3)cc2c1` [Example 422, N-[5-[4-[[(3S,4S)-4-methoxypyrrolidin-3-yl]methoxy]-2-methyl-pyrazol-3-yl]pyrazolo[1,5-a]pyridin-2-yl]cyclopropanecarboxamide], for which the IC50 turned out to be 96.9 nM. In the case of `CN1C[C@H](F)[C@H](Oc2cnn(C)c2-c2ccn3nc(NC(=O)C4CC4)cc3c2)C1` [Example 415, N-[5-[4-[(3R,4S)-4-fluoro-1-methyl-pyrrolidin-3-yl]oxy-2-methyl-pyrazol-3-yl]pyrazolo[1,5-a]pyridin-2-yl]cyclopropanecarboxamide], the midpoint of inhibition, the IC50, lay at 124 nM.

Take `CN1CC[C@@H]1COc1cnn(C)c1-c1ccn2nc(Nc3ccnc(C(F)(F)F)n3)cc2c1` [Example 118, 5-[2-methyl-4-[[(2R)-1-methylazetidin-2-yl]methoxy]pyrazol-3-yl]-N-[2-(trifluoromethyl)pyrimidin-4-yl]pyrazolo[1,5-a]pyridin-2-amine]: the half-maximal inhibitory concentration (IC50) is 1.9 nM.

In turn, `CN1C[C@H](COc2cnn(C)c2-c2ccn3nc(NC(=O)C4CC4)cc3c2)[C@@H](O)C1` [Example 424, N-[5-[4-[[(3R,4R)-4-hydroxy-1-methyl-pyrrolidin-3-yl]methoxy]-2-methyl-pyrazol-3-yl]pyrazolo[1,5-a]pyridin-2-yl]cyclopropanecarboxamide] gave an IC50 of 96.1 nM. With `CN1CC[C@@H]1COc1cnn(C)c1-c1ccn2nc(NC(=O)[C@H]3C[C@@H]3C(F)(F)F)cc2c1` (racemic) [Example 70, trans-N-[5-[2-methyl-4-[((2R)-1-methylazetidin-2-yl)methoxy]pyrazol-3-yl]pyrazolo[1,5-a]pyridin-2-yl]-2-(trifluoromethyl)cyclopropanecarboxamide] the figure was 219 nM; with `Cn1ncc(COC2(C)CNC2)c1-c1ccn2nc(NC(=O)C3CC3)cc2c1` [Example 191, N-[5-[2-methyl-4-[(3-methylazetidin-3-yl)oxymethyl]pyrazol-3-yl]pyrazolo[1,5-a]pyridin-2-yl]cyclopropanecarboxamide], 11.3 nM; with `CC(=O)N1CC[C@@H]1COc1cnn(C)c1-c1ccn2nc(NC(=O)C3CC3)cc2c1` [Example 56, N-[5-[4-[[(2R)-1-acetylazetidin-2-yl]methoxy]-2-methyl-pyrazol-3-yl]pyrazolo[1,5-a]pyridin-2-yl]cyclopropanecarboxamide], 2500 nM. In turn, `CCN1CCC[C@@H]1COc1cnn(C)c1-c1ccn2nc(NC(=O)C3CC3)cc2c1` [Example 427, N-[5-[4-[[(2R)-1-ethylpyrrolidin-2-yl]methoxy]-2-methyl-pyrazol-3-yl]pyrazolo[1,5-a]pyridin-2-yl]cyclopropanecarboxamide] showed a half-inhibitory concentration (IC50) of 73.5 nM. Against the preceding compound, the IC50 is about 34-fold lower.

Turning to `CO[C@H]1CNC[C@H]1Oc1noc(C)c1-c1ccn2nc(Nc3cc(C)nc(C)n3)cc2c1` [Example 94, N-(2,6-dimethylpyrimidin-4-yl)-5-[3-[(3R,4S)-4-methoxypyrrolidin-3-yl]oxy-5-methyl-isoxazol-4-yl]pyrazolo[1,5-a]pyridin-2-amine], the concentration for half-maximal inhibition (IC50) was 10.3 nM. With `CCN1CC[C@@H]1COc1cnn(C)c1-c1ccn2nc(Nc3ccc(=O)n(C)n3)cc2c1` [Example 170, 6-[[5-[4-[[(2R)-1-ethylazetidin-2-yl]methoxy]-2-methyl-pyrazol-3-yl]pyrazolo[1,5-a]pyridin-2-yl]amino]-2-methyl-pyridazin-3-one] the figure was 0.9 nM. As to `CC(C)N1CC[C@@H]1COc1cnn(C)c1-c1ccn2nc(NC(=O)C3CC3)cc2c1` [Example 53, N-[5-[4-[[(2R)-1-isopropylazetidin-2-yl]methoxy]-2-methyl-pyrazol-3-yl]pyrazolo[1,5-a]pyridin-2-yl]cyclopropanecarboxamide], the concentration for half-maximal inhibition (IC50) is 68.3 nM. Then `CCCn1ncc(OC[C@@H]2CCN(C)C2)c1-c1ccn2nc(NC(=O)C3CC3)cc2c1` [Example 490, N-[5-[4-[[(3R)-1-methylpyrrolidin-3-yl]methoxy]-2-propyl-pyrazol-3-yl]pyrazolo[1,5-a]pyridin-2-yl]cyclopropanecarboxamide], with 7330 nM; and `Cc1onc(OC[C@H]2COCCN2)c1-c1ccn2nc(NC(=O)C3CC3)cc2c1` [Example 496, N-[5-[5-methyl-3-[[(3R)-morpholin-3-yl]methoxy]isoxazol-4-yl]pyrazolo[1,5-a]pyridin-2-yl]cyclopropanecarboxamide], with 995 nM; and `CN1CC[C@@H]1COc1cnn(C)c1-c1ccn2nc(NC(=O)C3CC3(F)F)cc2c1` (stereo partly drawn) [Example 72, 2,2-difluoro-N-[5-[2-methyl-4-[[(2R)-1-methylazetidin-2-yl]methoxy]pyrazol-3-yl]pyrazolo[1,5-a]pyridin-2-yl]cyclopropanecarboxamide], with 52.1 nM. Compound `Cc1cnc(Nc2cc3cc(-c4c(OC[C@H]5CCN5C)cnn4C)ccn3n2)cn1` [Example 49, 5-[2-methyl-4-[[(2R)-1-methylazetidin-2-yl]methoxy]pyrazol-3-yl]-N-(5-methylpyrazin-2-yl)pyrazolo[1,5-a]pyridin-2-amine] yielded an IC50 of 5.3 nM.
